Values joined by “and” are separate entries in the source; they are usually repeats but may differ in a detail not shown here. Equal values may be shown once.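 Grown in 96-well plates, cells were treated for 48 hours with each compound at five concentrations. Insufficient inhibition: endpoint recorded as highest concentration tested. The concentration for 50% growth inhibition is given as GI50. TGI is the concentration that stops growth completely.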
How the values were obtained:
Assay in all cases: inhibition of tumour cell growth, NCI panel, 48 h
786-0 renal = tested on: 786-0 renal
BT-549 breast = tested on: BT-549 breast
CCRF-CEM leukemia = tested on: CCRF-CEM leukemia
COLO 205 colon = tested on: COLO 205 colon
HCT-116 colon = tested on: HCT-116 colon
MDA-MB-231 breast = tested on: MDA-MB-231 breast
SF-539 CNS = tested on: SF-539 CNS
A498 renal = tested on: A498 renal

| Structure (SMILES) | GI50 (786-0 renal) | TGI (786-0 renal) | GI50 (BT-549 breast) | TGI (BT-549 breast) | GI50 (CCRF-CEM leukemia) | TGI (CCRF-CEM leukemia) | GI50 (COLO 205 colon) | TGI (COLO 205 colon) | GI50 (HCT-116 colon) | TGI (HCT-116 colon) | GI50 (MDA-MB-231 breast) | TGI (MDA-MB-231 breast) | GI50 (SF-539 CNS) | TGI (SF-539 CNS) | TGI (A498 renal) | GI50 (A498 renal) |
| --- | --- | --- | --- | --- | --- | --- | --- | --- | --- | --- | --- | --- | --- | --- | --- | --- |
| O=C(CC(O)c1ccncc1)c1ccccc1 (stereo not given) | 30 µM | > 100 µM | 22.4 µM | 88.4 µM | 30.7 µM | > 100 µM | 16.5 µM | 31.2 µM | 19.3 µM | 54.6 µM | 16.7 µM | 54.6 µM | 19.5 µM | 48.3 µM |  |  |
| Cc1[nH]n(-c2ccc(S(=O)(=O)O)cc2)c(=O)c1N=Nc1ccccc1 |  | > 100 µM |  | > 100 µM |  |  |  | > 100 µM |  | > 100 µM |  | > 100 µM |  | > 100 µM | > 100 µM |  |
| CN(C)c1ccc(/C=C/c2ccnc3ccccc23)cc1N |  | 53.5 µM |  |  |  | > 100 µM |  | 19.6 µM |  |  |  | 20.1 µM |  | 28.8 µM | 22.3 µM |  |
| Nc1nc(Cl)c(N=Nc2ccc(Cl)cc2)c(NCC2(CO)CC(OCc3ccccc3)C2)n1 (stereo not given) | 5.31 µM and 11.1 µM and 2.12 µM |  | 4.98 µM and 45.7 µM and 8.82 µM | 46 µM and > 100 µM and 23.9 µM |  | 51.5 µM and > 100 µM | 27.9 µM and 33.7 µM and 6.17 µM | > 100 µM and 25.6 µM | 7.37 µM and 40.9 µM and 8.76 µM | > 100 µM and 32.4 µM |  |  | 13.7 µM and > 100 µM and 12.4 µM | 43.7 µM and > 100 µM and 33.1 µM | 91.8 µM and > 100 µM and 44.1 µM | 30.9 µM and > 100 µM and 20.2 µM |
| Oc1ccccc1Nc1nc2ccccc2c2occc12 | 0.399 µM | 19.2 µM | 7.59 µM | 20.7 µM |  |  | 13.3 µM | 26 µM | 14.3 µM | 27.4 µM | 10.1 µM | 22.3 µM | 10.4 µM | 22.1 µM |  |  |
| CC(=O)c1c(O)ccc2c(C)c(C(=O)O)oc12 | > 100 µM | > 100 µM | > 100 µM | > 100 µM | > 100 µM | > 100 µM | > 100 µM | > 100 µM | > 100 µM | > 100 µM |  |  | > 100 µM | > 100 µM | > 100 µM | > 100 µM |
| COc1cc(-n2cc(-c3ccc(F)cc3)[nH]c2=S)cc(OC)c1OC | 63.6 µM | > 100 µM | 58 µM | > 100 µM | > 100 µM | > 100 µM | > 100 µM | > 100 µM | > 100 µM | > 100 µM | 36.4 µM | > 100 µM | 63.1 µM | > 100 µM |  |  |
| CCOCC(=O)N[C@H]1CCc2cc(OC(=O)COCC)c(OC)c(OC)c2-c2ccc(SC)c(=O)cc21 | 0.0568 µM | > 100 µM |  |  | 0.0127 µM |  |  | 0.054 µM |  |  | 0.036 µM |  | 0.0126 µM | 0.061 µM and 0.0554 µM |  |  |
| COC(=O)c1cc2c3ccccc3n3c(=O)c4cc5cc(OC)c(N(S(=O)(=O)c6ccc(C)cc6)S(=O)(=O)c6ccc(C)cc6)cc5nc4c(n1)c23 | 3.23 µM | 14.5 µM | 11 µM | 27.8 µM |  |  | > 100 µM | > 100 µM | 13.5 µM | 59.7 µM | 9.62 µM | 32.3 µM | 13 µM | 30.6 µM | 29.6 µM | 10.2 µM |
| COc1cc2c3c(n(CCCNC(=O)OCC4c5ccccc5-c5ccccc54)c(=O)c2cc1OC)-c1cc2c(cc1C3=O)OCO2 | 37.7 µM | > 100 µM |  |  |  |  | > 100 µM | > 100 µM | 13.8 µM | > 100 µM | 15.9 µM | > 74.2 µM | 7.25 µM | 31.2 µM | > 100 µM | 24.9 µM |
| N#CCC12CC=CCC1=C(O)C(=O)c1ccc(O)cc12 (stereo not given) |  | > 100 µM |  |  |  | > 100 µM |  | > 100 µM |  | > 100 µM |  | > 100 µM |  | > 100 µM | > 100 µM |  |
| CCCCCCCCCCCCSC(=NC)NC | 1.88 µM | 3.51 µM | 4.09 µM | 21 µM | 2.63 µM | 9.97 µM |  |  |  |  | 2.02 µM | 4.15 µM | 1.67 µM | 3.14 µM | 8.69 µM | 2.63 µM |
| COc1cc(C(=O)/C=C/c2c(-c3ccc(F)cc3)nc3ncccn23)cc(OC)c1OC | 2.76 µM | 9.6 µM | 1.8 µM | 19.4 µM | 4.05 µM | > 100 µM |  |  | 1.53 µM | 4.45 µM | 2.99 µM | 16.5 µM | 1.55 µM | 3.77 µM | 7.58 µM | 2.2 µM |
| Cc1ccc(/C=C/C(=O)c2ccc(N)cc2)c(C)c1 | 1.88 µM | 3.45 µM | 1.68 µM | 3.4 µM |  |  | 2.43 µM | 6.07 µM | 1.91 µM | 3.76 µM | 2.68 µM | 6.75 µM | 2.39 µM | 5.45 µM | 27.5 µM | 13.6 µM |
| Cc1ccc(S(=O)(=O)N/N=C/c2oc(-c3ccccc3Cl)c(-c3ccccc3Cl)c2[N+](=O)[O-])cc1 |  | 72 µM |  |  |  | > 100 µM |  | > 100 µM |  | 46.6 µM |  |  |  | 46.1 µM | 61.8 µM |  |

— PubChem BioAssay (NCI)
